Measurements: patent EP0719251B1, “BICYCLO (2.2.2) OCTANE DERIVATIVES CHOLECYSTOKININ AND/OR GASTRIN ANTAGONISTS” (JAMES BLACK FOUNDATION LIMITED, priority 1993, dated 1995)

Tests used:
CCKB receptor = target: T1, CCKB receptor (Mus musculus, UniProt P56481); assay: radioligand binding assay at the CCKB receptor in mouse cortical membranes; conditions: [125I]-CCK8S 200pM, 150 min at 21 ± 3°C; for Ki: read-out: CCKB pKi (converted)
T1 construct: The whole brains from male mice (CD1 22-25g; Charles River) were removed; from tissue; host or cells: cerebral cortex membranes of male CD1 mice
T1 sequence (P56481 1-453): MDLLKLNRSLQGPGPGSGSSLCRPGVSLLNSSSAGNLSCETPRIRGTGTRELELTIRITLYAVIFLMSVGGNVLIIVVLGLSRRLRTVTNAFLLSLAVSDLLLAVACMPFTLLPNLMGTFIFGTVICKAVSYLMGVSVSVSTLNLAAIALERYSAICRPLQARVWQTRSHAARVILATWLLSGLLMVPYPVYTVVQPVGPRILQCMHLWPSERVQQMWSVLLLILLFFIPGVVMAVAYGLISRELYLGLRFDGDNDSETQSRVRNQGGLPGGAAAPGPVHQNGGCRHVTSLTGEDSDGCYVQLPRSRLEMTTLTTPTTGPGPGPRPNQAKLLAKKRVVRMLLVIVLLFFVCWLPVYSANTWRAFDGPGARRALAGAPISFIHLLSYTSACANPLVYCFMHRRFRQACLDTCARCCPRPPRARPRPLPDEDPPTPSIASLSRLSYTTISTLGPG
Protocol: The compounds of the examples were tested for binding at the CCKB receptor in mouse cortical membranes by means of a radioligand binding assay. The procedure was as follows:
The whole brains from male mice (CD1 22-25g; Charles River) were removed and placed in ice-cold buffer (pH7.2 @ 21 ± 3°C) of the following composition (mM); 10 HEPES, 130 NaCl, 4.7 KCl, 5 MgCl2, 1 EDTA and containing 0.25g.l^-1 bacitracin. The cortex was dissected, weighed and homogenised in 40ml ice-cold buffer using a Teflon-in-glass homogeniser. The homogenate was centrifuged at 39,800g for 20 min at 4°C, the supernatant discarded and the pellet resuspended by homogenisation in fresh buffer. The homogenate was recentrifuged (39,800g; 20 min @ 4°C) and the final pellet was resuspended in HEPES buffer to give a tissue concentration of 2mg.ml^-1(original wet weight).
The assay was terminated by rapid filtration through pre-soaked Whatman GF/B filters using a Brandell Cell harvester. The filters were washed (3 x 3ml) with ice-cold 50mM Tris-HCl (pH7.4 @ 4°C) and bound radioactivity determined by counting (1 min.) in a gamma-counter.

gastrin = target: T2, gastrin (Rattus norvegicus, UniProt P30553); assay: gastrin antagonist activity in an immature rat stomach assay; conditions: isolated immature rat stomach, cumulative pentagastrin dose-response curves, acid secretion; for Kb: read-out: Gastrin pKB (converted)
T2 construct: The stomach was excised and flushed with ca. 1 ml of unbuffered physiological saline solution; from tissue; host or cells: isolated whole stomach of immature rats (33-50 g, ca. 21 days old)
T2 sequence (P30553 1-452): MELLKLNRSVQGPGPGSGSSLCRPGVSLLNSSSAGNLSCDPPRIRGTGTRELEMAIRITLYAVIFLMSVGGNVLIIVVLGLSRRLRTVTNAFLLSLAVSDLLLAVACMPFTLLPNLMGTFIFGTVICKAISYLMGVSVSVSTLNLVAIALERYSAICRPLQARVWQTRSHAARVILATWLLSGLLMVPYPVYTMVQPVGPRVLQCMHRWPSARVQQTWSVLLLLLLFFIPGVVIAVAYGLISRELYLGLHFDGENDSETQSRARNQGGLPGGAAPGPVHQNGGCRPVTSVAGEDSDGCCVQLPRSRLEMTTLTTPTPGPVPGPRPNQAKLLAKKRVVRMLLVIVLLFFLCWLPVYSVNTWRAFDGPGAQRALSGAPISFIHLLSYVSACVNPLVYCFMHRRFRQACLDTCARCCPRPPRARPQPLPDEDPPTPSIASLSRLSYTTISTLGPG
Protocol: The compounds of the examples were also tested for gastrin antagonist activity in an immature rat stomach assay. The procedure was as follows: The oesophagus of immature rats (33-50 g, ca. 21 days old) was ligated at the level of the cardiac sphincter and the duodenal sphincter was cannulated. The stomach was excised and flushed with ca. 1 ml of unbuffered physiological saline solution. The fundus was punctured and cannulated. A further 4-5 ml of unbuffered solution was flushed through the stomach to ensure the preparation was not leaking. […] The stomach was continuously perfused at a rate of 1 ml min^-1 with unbuffered solution gassed with 100% O2 with the perfusate passing over an internally referenced pH-electrode fixed 12 cm above the stomach. After 120 min of stabilisation the drugs were added directly to the serosal solution in the organ bath and after a further 60 min cumulative pentagastrin dose-response curves were started.

CCKA = target: T3, CCKA (Cavia porcellus, UniProt Q63931); assay: CCKA binding assay in guinea-pig pancreas membranes; conditions: [125I]-CCK8(S) 200pM; for Ki: containing 0.375 µM PD134,308, read-out: CCKA pKi (converted)
T3 construct: The pancreatata were removed from male guinea-pigs (200-300g; Dunkin Hartley); from tissue; host or cells: pancreas membranes of male Dunkin Hartley guinea-pigs
T3 sequence (Q63931 1-430): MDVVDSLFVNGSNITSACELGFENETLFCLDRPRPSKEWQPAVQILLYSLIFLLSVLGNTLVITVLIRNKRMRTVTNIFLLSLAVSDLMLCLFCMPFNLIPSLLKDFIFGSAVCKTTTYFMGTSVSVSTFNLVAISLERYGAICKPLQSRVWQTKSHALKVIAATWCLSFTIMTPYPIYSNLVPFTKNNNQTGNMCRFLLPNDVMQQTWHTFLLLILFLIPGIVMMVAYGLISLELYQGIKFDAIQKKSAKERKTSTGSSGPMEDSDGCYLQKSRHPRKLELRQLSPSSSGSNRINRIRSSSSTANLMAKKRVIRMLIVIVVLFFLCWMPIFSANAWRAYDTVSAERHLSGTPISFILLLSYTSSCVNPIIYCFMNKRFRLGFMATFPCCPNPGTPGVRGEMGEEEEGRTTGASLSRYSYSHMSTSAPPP
Protocol: The compounds of the examples were also tested in a CCKÅ binding assay as follows:
The pancreatata were removed from male guinea-pigs (200-300g; Dunkin Hartley) and placed in ice-cold HEPES buffer (pH 7.2 @ 21 ± 3° ). The pancreatata were homogenised in 40 ml ice-cold HEPES buffer using a polytron (Brinkmann, PT10, setting 10) 4 x 1 second.
The homogenate was centrifuged at 39,800g for 15 min at 4°. The supernatant was discarded and the pellet re-suspended using a Teflon-in-glass homogeniser in 20 volumes of fresh buffer and recentrifuged as above. The final pellet was re-suspended using a Teflon-in-glass homogeniser to a tissue concentration of 1 mg.ml^-1 (original wet weight), and filtered through 500 µm pore-size Nytex mesh.
The membranes (400µl; containing 0.375 µM PD134,308) are incubated for 150 minutes at 21 ± 3° in a final volume of 0.5ml with HEPES buffer containing [^125I]-CCK8(S) (50µl; 200pM) and competing compound. Total and non-specific binding of [^125I]-CCK8 (S) are defined using 50µl of buffer and 50µl of 100nM L-364,718 respectively. The assay is terminated by rapid filtration through pre-soaked Whatman GF/B filters using a Brandell Cell Harvester. The filters were washed (3 x 3ml) with ice-cold 50mM Tris HCl (pH 7.4 at 4° ) and bound radioactivity is determined by counting (1 min) in a gamma counter.

| Ki (CCKB receptor) | Kb (gastrin) | Ki (CCKA) | CCKB pKi (CCKB receptor) | Gastrin pKB (gastrin; 60 min) | CCKA pKi (CCKA; containing 0.375 µM PD134,308) | Structure (SMILES) |
| --- | --- | --- | --- | --- | --- | --- |
| 100 nM | 63.1 nM | 2000 nM | – | – | – | O=C(O)c1cc(NC(=O)[C@@H](CCc2ccccc2)NC(=O)C2C3c4ccccc4C(c4ccccc43)C2C(=O)NCC23CC4CC(CC(C4)C2)C3)cc(C(=O)O)c1 (stereo partly drawn) [Example 37, cis-7-(1R-(3,5-dicarboxyphenylaminocarbonyl) -3-phenylpropylaminocarbonyl)-8-(1-adamintanemethylaminocarbonyl)-2,3,5,6-dibenzobicyclo[2.2.2] octane] |
| 100 nM | 63.1 nM | 1580 nM | – | – | – | COc1ccc(C[C@H](NC(=O)C2C3c4ccccc4C(c4ccccc43)C2C(=O)NCC23CC4CC(CC(C4)C2)C3)C(=O)Nc2cc(C(=O)O)cc(C(=O)O)c2)cc1 (single isomer, unassigned) [Example 12, cis-7-(1S-(3,5-dicarboxyphenylaminocarbonyl)-2-(4-methoxyphenyl) -ethylaminocarbonyl)-8-(1-adamantanemethylaminocarbonyl) -2,3,5,6-dibenzobicyclo[2.2.2]octane] |
| – | – | – | 6.7 | 5.8 | 7.0 | O=C(O)c1cc(NC(=O)[C@H](Cc2ccc3ccccc3c2)NC(=O)C2C3c4ccccc4C(c4ccccc43)C2C(=O)NCC23CC4CC(CC(C4)C2)C3)cc(C(=O)O)c1 (single isomer, unassigned) [Example 15, cis-7-(1S-(3,5-dicarboxyphenylaminocarbonyl)-2-(2-naphthyl)ethylaminocarbonyl)-8-(1-adamantanemethylaminocarbonyl) -2,3,5,6-dibenzobicyclo[2.2.2]octane] |
| 100 nM | 794 nM | 1260 nM | – | – | – | O=C(O)c1ccc(NC(=O)[C@H](Cc2ccccc2)NC(=O)C2C3c4ccccc4C(c4ccccc43)C2C(=O)NCC23CC4CC(CC(C4)C2)C3)cc1C(=O)O (stereo partly drawn) [Example 43, cis-7-(1S-(3,4-dicarboxyphenylaminocarbonyl)-2-phenylethylaminocarbonyl)-8-(1-adamantanemethylaminocarbonyl)-2,3,5,6-dibenzobicyclo [2.2.2]octane] |
| 10 nM | 5.01 nM | 794 nM | – | – | – | O=C(O)c1cc(NC(=O)[C@H](Cc2ccc(Cl)cc2)NC(=O)C2C3c4ccccc4C(c4ccccc43)C2C(=O)NCC23CC4CC(CC(C4)C2)C3)cc(C(=O)O)c1 (single isomer, unassigned) [Example 10, cis-7-(1S-(3,5-dicarboxyphenylaminocarbonyl)-2-(4-chlorophenyl)-ethylaminocarbonyl)-8-(1-adamantanemethylaminocarbonyl) -2,3,5,6-dibenzobicyclo[2.2.2]octane] |
| 31.6 nM | 39.8 nM | 2510 nM | – | – | – | O=C(O)c1cc(CNC(=O)[C@H](Cc2ccccc2)NC(=O)C2C3c4ccccc4C(c4ccccc43)C2C(=O)NCC23CC4CC(CC(C4)C2)C3)cc(C(=O)O)c1 (single isomer, unassigned) [Example 61, cis-7-(1S-(3,5-dicarboxyphenylmethylaminocarbonyl) -2-phenylethylaminocarbonyl) -8-(1-adamantanemethylaminocarbonyl)-2,3,5,6-dibenzobicyclo [2.2.2] octane] |
| 2.51 nM | 39.8 nM | 1580 nM | – | – | – | O=C(O)c1cc(NC(=O)[C@H](Cc2ccccc2)NC(=O)C2C3c4ccccc4C(c4ccccc43)C2C(=O)NCc2ccc3ccccc3c2)cc(C(=O)O)c1 (single isomer, unassigned) [Example 63, cis-7-(1S-(3,5-dicarboxyphenylaminocarbonyl) -2-phenylethylaminocarbonyl)-8-(2-naphthalenemethylaminocarbonyl) -2,3,5,6-dibenzobicyclo[2.2.2]octane] |
| 501 nM | 316 nM | 2000 nM | – | – | – | COc1ccc(C[C@H](NC(=O)C2C3c4ccccc4C(c4ccccc43)C2C(=O)NCC23CC4CC(CC(C4)C2)C3)C(=O)Nc2cc(C(=O)O)cc(C(=O)O)c2)cc1 (single isomer, unassigned) [Example 13, cis-7-(1S-(3,5-dicarboxyphenylaminocarbonyl) -2-(4-methoxyphenyl)ethylaminocarbonyl)-8-(1-adamantanemethylaminocarbonyl) -2,3,5,6-dibenzobicyclo[2.2.2]octane] |
| 39.8 nM | 316 nM | 251 nM | – | – | – | O=C(O)c1cc(NC(=O)[C@H](Cc2ccccc2)NC(=O)C2C3c4ccccc4C(c4ccccc43)C2C(=O)NCc2ccc(Cl)c(Cl)c2)cc(C(=O)O)c1 (single isomer, unassigned) [Example 34, cis-7-(1S-(3,5-dicarboxyphenylaminocarbonyl) -2-phenylethylaminocarbonyl) -8-(3,4-dichlorophenyl-methylaminocarbonyl) -2,3,5,6-dibenzobicyclo[2.2.2]octane] |
